Reference: US7592025B2, “Vehicles for oral care with magnolia bark extract” (GIC Innovations Company, priority 2005, dated 2009)

How the values were obtained:
[1] = system: bacteria from freshly-collected stimulated whole saliva (plaque biofilm); assay: Mixed culture saliva biofilm on saliva-coated hydroxyapatite discs, timed exposure to actives; assay type: cell-based; conditions: for pH (of medium): second series (Table 7)
Procedure: Although useful to show the comparative effect of Magnolia Bark Extract on biofilm formation and MIC growth, the foregoing test procedure may not effectively mimic the in vivo exposure of an oral care product to a developing plaque biofilm. In an in vivo situation, the active could be exposed to the plaque for a defined period of time at a set frequency (for example, for 5 minutes, three times a day). Therefore, a series of comparative experiments were conducted to mimic the in vivo use of potential active ingredients. To perform the tests the saliva compositions listed below in Tables 2 and 3 were prepared.
A mixed culture system that utilizes the bacteria from freshly-collected stimulated whole saliva was used. Saliva cell pellets were used to inoculate saliva-coated hydroxyapatite (S-HA) discs. The discs were placed in 24-well cell culture plates and incubated for up to 3 days. Biofilms were exposed to actives on days 2 and 3 (starting at 18 hours), and quantified on day 4. The number of bacteria was determined by spectrophotometric absorbance or optical density (OD) at 600 nm. The five phases of the experiment were: pellicle formation; bacterial attachment; biofilm growth; exposure to actives; and bacterial enumeration.
To form the pellicles, HA Discs were ultrasonically washed in deionized water and air-dried, then autoclaved. The discs were placed in a 24-well plate with 1 ml 50% sterile saliva (1 part sterile whole saliva: 1 part saliva buffer, filter sterilize after preparation) for 2 hours on slow agitation at room temperature. […]
After overnight incubation (day 2), discs were exposed to controls and actives. […] On day 4 the discs were removed from the medium, the medium pH was measured to obtain an indication of metabolic activity, and the discs were placed into tubes with 2.5 ml PBS, vortexed for 20 sec, and then placed into the ultrasonic bath for another 20 sec. The suspension was transferred into cuvettes and the bacterial cell density determined by OD measurements at 600 nm. […]

[2] = system: incubated saliva; assay: MIC of surface active agents and emulsifiers by two-fold serial dilution in nutrient broth; assay type: cell-based; conditions: for MIC (ppm): incubated saliva, 24 hours at 37° C.; for germ-kill efficacy (in words): assessment of Table 9 results
Procedure: (§1) To evaluate the germ-kill efficacy and synergist effect when two or more germ-kill actives are combined, testing was performed to determine the ratio of MBE to surface active agent. The germ-kill active and/or surface active agent were dissolved in ethanol or sterile water to give an initial concentration 0.1% to 1%. The solution was diluted with a nutrient broth to give an initial concentration of 0.05% to 0.5%, which was then serially diluted two-fold so that each subsequent dilution contained 50% of the compound concentration of the previous dilution while maintaining a constant level of nutrients for each dilution. These dilutions were inoculated with representative oral microorganisms, or incubated saliva, and incubated for 24 hours at 37° C. For each surface active agent, the lowest dilution that was not turbid was registered as the MIC. The MBC was determined by transferring 10 microliter of liquid from non-turbid tubes to fresh growth media and incubated for 48 hours.

[3] = system: S. mutans; assay: MIC and fractional inhibitory index (FIC) of combinations by two-fold serial dilution; assay type: cell-based, Streptococcus mutans; conditions: 24 hours at 37° C., ratio as in label
Procedure: as §1
(1) where an FIC value of less than 1.0 is synergistic, an FIC between 1.0 and 2.0 is additive, and an FIC greater than 2.0 is antagonistic.

| Compound | MIC (ppm) [2] [ppm] | germ-kill efficacy (in words) [2] | other results |
| --- | --- | --- | --- |
| [H]/N=C(\N/C(=N/[H])NCCCCCCNC(=N)NC(=N)Nc1ccc(Cl)cc1)Nc1ccc(Cl)cc1 [CHX, Chlorhexidine] |  |  | pH (of medium, indication of metabolic activity) ([1]; CHX 0.12%, exposure one minute two times a day, day 4): 8.8; pH (of medium) ([1]; CHX 0.1% (1000 ppm)): 8.8 |
| N=C(NCCCCCCNC(=N)NC(=N)Nc1ccc(Cl)cc1)NC(=N)Nc1ccc(Cl)cc1.O=C(O)[C@H](O)[C@@H](O)[C@H](O)[C@H](O)CO.O=C(O)[C@H](O)[C@@H](O)[C@H](O)[C@H](O)CO [Chlorhexidine gluconate, reference compound] | 2 |  | MIC/ppm [3]: 2 ppm |
| Sucrose Distearate | >500 | weak or non |  |
| Sodium Brasslate | 500 | moderate |  |
| CCCCCCCCCCCC(=O)OCCOCCOCCOCCOCCOCCOCCOCCOCCOCCOCCOCCOCCOCCOCCOCCOCCOCCOCCOCCOCC(OCCOCCOCCOCCOCCOCCOCCOCCOCCOCCOCCOCCOCCOCCOCCOCCOCCOCCOCCOCCO)C1OCC(OCCOCCOCCOCCOCCOCCOCCOCCOCCOCCOCCOCCOCCOCCOCCOCCOCCOCCOCCOCCO)C1OCCOCCOCCOCCOCCOCCOCCOCCOCCOCCOCCOCCOCCOCCOCCOCCOCCOCCOCCOCCO (stereo not shown) [Tween 20, Polysorbate 20] |  | weak or non |  |
| CCCCCCCCCCCCOS(=O)(=O)[O-].[Na+] [SLS, Sodium Lauryl Sulfate] |  | good | pH (of medium) ([1]; SLS 1000 ppm): 5.7 |
| Cocamidopropyl Betaine |  | good |  |
| Sucrose Stearate | >500 | weak or non |  |
| Sodium Stearoyl Lactylate | >3000 | weak or non |  |
